Assays:
[1] = molecular target: T1, Heat shock protein HSP 90-beta (Homo sapiens, UniProt P08238); assay: Thermofluor Assay
Description: Thermofluor Assay

[2] = molecular target: T1, Heat shock protein HSP 90-beta; assay: ITC
Description: ITC

T1 sequence (P08238 whole entry): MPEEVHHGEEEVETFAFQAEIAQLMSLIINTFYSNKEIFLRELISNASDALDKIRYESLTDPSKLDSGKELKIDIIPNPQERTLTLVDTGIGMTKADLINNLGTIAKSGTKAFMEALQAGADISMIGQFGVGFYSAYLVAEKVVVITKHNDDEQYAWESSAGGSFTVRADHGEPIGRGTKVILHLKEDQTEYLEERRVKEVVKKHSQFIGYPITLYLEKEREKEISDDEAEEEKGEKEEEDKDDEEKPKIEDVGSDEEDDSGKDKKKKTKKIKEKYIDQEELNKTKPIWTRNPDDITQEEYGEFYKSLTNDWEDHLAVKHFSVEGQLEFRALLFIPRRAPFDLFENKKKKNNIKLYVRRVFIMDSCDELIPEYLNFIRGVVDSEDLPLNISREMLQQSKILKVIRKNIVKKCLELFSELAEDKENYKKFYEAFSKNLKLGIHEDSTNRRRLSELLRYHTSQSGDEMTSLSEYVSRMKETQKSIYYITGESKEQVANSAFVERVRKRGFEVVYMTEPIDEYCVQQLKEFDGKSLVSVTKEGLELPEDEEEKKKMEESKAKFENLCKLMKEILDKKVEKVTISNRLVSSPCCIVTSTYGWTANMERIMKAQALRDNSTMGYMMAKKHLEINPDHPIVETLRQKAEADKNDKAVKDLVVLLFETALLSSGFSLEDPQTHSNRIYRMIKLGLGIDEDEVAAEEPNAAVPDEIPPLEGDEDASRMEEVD

Row | Compound | Kd [1] | Kd [2]
1 | O=C(c1ccc(O)cc1O)c1ccc(O)c(O)c1O [Polyhydroxy benzophenone, 8] | > 100 µM | 
2 | CCCc1cc(-n2c(=O)[nH]c3ccccc32)c(O)cc1O [hsp90_12] | 0.123 µM | 0.0686 µM
3 | COc1ccc(-c2cc(-c3ccc(Cl)cc3Cl)nc(N)n2)c(OC)c1 [hsp90_84] | 265 µM | 
4 | CCc1cc(-n2c(=O)[nH]c3ccccc32)c(O)cc1O [hsp90_40] | 0.165 µM | 0.069 µM
5 | O=c1[nH]c2cc(CNS(=O)(=O)c3cccnc3)ccc2n1-c1cc(Cl)c(O)cc1O [hsp90_44] | 0.376 µM | 0.0268 µM
6 | O=c1[nH]c2ccccc2n1-c1cc(-c2ccnc3ccccc23)c(O)cc1O [hsp90_23] |  | 3.06 µM
7 | Nc1nc(N)nc(-c2ccccc2Cl)n1 [hsp90_179] | 20.4 µM | 7.45 µM
8 | CCOC(=O)CO/N=C/c1c(Cl)nc(N)nc1-c1ccc(Cl)cc1Cl [hsp90_91] | 11.2 µM | 
9 | COc1cccc(OC)c1-c1cc(C)nc(N)n1 [hsp90_70] | 2.28 µM | 1.48 µM
10 | CC(C)c1ccc(S(=O)(=O)NCc2ccc3c(c2)[nH]c(=O)n3-c2cc(Cl)c(O)cc2O)cc1 [hsp90_38] | 0.225 µM | 0.115 µM
11 | O=c1[nH]c2cc(CNS(=O)(=O)c3ccccc3O)ccc2n1-c1cc(Cl)c(O)cc1O [hsp90_43] | 0.172 µM | 0.0107 µM
12 | CC1c2cc(-n3c(=O)[nH]c4ccccc43)c(O)cc2OC1(C)C (centres undefined) [hsp90_35] | > 100 µM | 
13 | COc1cc(-c2cc(-n3c(=O)[nH]c4ccccc43)c(O)cc2O)cc(OC)c1OC [hsp90_24] | 0.993 µM | 10.3 µM
14 | Cn1c2c([n+](C)c1CCl)C(=O)c1ccccc1C2=O [hsp90_128] | > 100 µM | 
15 | COC(=O)c1cc(-n2c(=O)[nH]c3cc(C(F)(F)F)cc(Cl)c32)c(O)cc1OC [hsp90_13] | > 100 µM | 
16 | O=C(c1cccc(O)c1)c1ccc(O)cc1O [Polyhydroxy benzophenone, 12] | 28.9 µM | 11.5 µM
17 | Cc1cc(-n2nc(C(=O)NCC3COC(C)(C)O3)cc2C)nc(N)n1 (centres undefined) [hsp90_95] | 91 µM | 64 µM
18 | CC(=O)Oc1ccc2c(=O)c(Cc3ccccc3)c(C)oc2c1OC(C)=O [hsp90_174] | > 100 µM | 
19 | Nc1nc(Cl)c(/C=N/O)c(-c2ccc(Cl)cc2Cl)n1 [hsp90_87] | 2.25 µM | 
20 | O=C(CCl)NCc1cc(C(=O)c2ccc(OCCO)c(Cl)c2Cl)cc(Cl)c1O [hsp90_171] | > 100 µM | 
21 | Cc1cc(-c2ccc([N+](=O)[O-])cc2Cl)nc(N)n1 [hsp90_73] | 4.53 µM | 0.393 µM
22 | CC(=O)Oc1ccc([N+](=O)[O-])c2ccccc12 [hsp90_165] | > 100 µM | 
23 | Nc1nc(-c2ccc(C(F)(F)F)cc2Cl)cc(-c2ccc(C(F)(F)F)cc2Cl)n1 [hsp90_77] | > 100 µM | 
24 | O=c1[nH]c2ccccc2n1-c1cc(-c2ccccc2O)c(O)cc1O [hsp90_10] | 4.58 µM | 6.58 µM
25 | O=C(c1ccc(O)cc1)c1ccc(O)cc1O [hsp90_176] | 10.6 µM | 3.11 µM
26 | CCCC(=O)c1cc(O)c(O)c(O)c1 [hsp90_151] | > 100 µM | 
27 | O=c1[nH]c2ccccc2n1-c1cc(-c2cccnc2O)c(O)cc1O [hsp90_34] | 94.8 µM | 54 µM
28 | O=C(c1ccc(O)cc1)c1cc(Cl)ccc1O [hsp90_164] | 7.51 µM | 8.33 µM
29 | Cc1cc(CNC(=O)N2CCN(S(C)(=O)=O)C2=O)nc(N)n1 [hsp90_120] | > 100 µM | 
